pEC50: −log10 of the molar value.
Key:
[1] = system: HBV replication in HepAD38 cells; experiment: Anti-HBV activity in HepAD38 cells, extracellular HBV DNA by QPCR; format: cell-based, HBV (genotype D, serotype ayw); details: Hepatitis B virus, HePAD38, 168 h, read-out: Anti-HBV EC50, HepAD38 cells, extracellular HBV DNA by QPCR, 7 days of incubation
Description: The anti-HBV activity of the Capsid Assembly Modulators (CAMs) was evaluated in a cell based assay utilizing the human hepatoma cell line HepAD38 (Ladner, S K., et al., 1998). HepAD38 cells were derived from the parental line, HepG2, that were stably transfected with a construct containing an HBV genome (genotype D, serotype ayw) under the control of a tetracycline repressible CMV promoter. Upon removal of tetracycline, viral pre-genomic RNA (pgRNA) and mRNAs are expressed and infectious viral particles are assembled and secreted into the culture medium providing a reliable, robust system to measure multiple steps of the HBV life cycle. Disruption of capsid formation results in reduced levels of DNA-containing virus particles that are released into the culture supernatant. To quantify the effect of CAMs on HBV replication, we developed a sensitive QPCR-based assay that measures extracellular HBV DNA levels upon treatment of HepAD38 cells with various concentrations of test compounds.
HepAD38 cells were maintained in DMEM/F12 medium containing 10% FBS, 400 μg/mL G418 and 0.3 μg/mL tetracycline (tet+medium) to maintain repression of HBV replication. To evaluate each compound, HepAD38 cells were seeded into 24-well collagen coated culture plates (Corning BioCoat) at a density of 200,000 cells per well in 1 mL of tet+medium and allowed to adhere overnight at 37° C., 5% CO2 in a humidified incubator. The following day, test articles were subjected to half-logo serial dilutions, ranging from 30 μM to 10 nM, in 100% DMSO at 200× the desired final assay concentration. Tetracycline was removed from the cells by aspirating the tet+medium and washing the cells once with growth medium lacking tetracycline (tet-). Various concentrations of each compound were added to the appropriate wells (1:200 dilution) and the plates were returned to the incubator. Following 7 days of incubation, culture supernatants were harvested and HBV DNA levels were evaluated by QPCR and compared to the vehicle treated control wells (i.e. DMSO alone).
To quantify HBV DNA levels, cell culture supernatants were diluted 1:10 in sterile, nuclease-free water (Gibco). The diluted supernatants were subsequently added to a PCR master mix containing 1× Roche Light Cycler Master Mix, 0.5 μM forward primer, 0.5 μM reverse primer (Fwd:
0.2 μM Roche Universal Probe Library Probe 25. The volume was brought to 20 μL with nuclease-free water and amplification of the HBV target sequence was performed using a Roche LightCycler 480 QPCR instrument. PCR extended out to 45 cycles with each cycle consisting of a denaturation step at 95° C. for 10 sec., followed by an annealing step at 60° C. for 10 sec. and a brief extension step at 72° C. for 1 sec.
Extracellular HBV DNA levels, expressed in copies/mL, were determined by comparison to a standard curve (10^2-10^9 copies/mL) using the Roche LightCycler analysis software. These values were subsequently converted to percent inhibition of HBV replication by dividing the HBV DNA levels in the experimental samples with those obtained from the vehicle control (˜1-2×10^5 copies/mL). Potency, expressed as an EC50 (the effective concentration required to inhibit […] of HBV replication), was calculated from the dose-response curve using a 4-parameter non-linear regression analysis (GraphPad Prism). The nucleoside analog inhibitor entecavir was used as a positive control to validate each assay run. The EC50 value of entecavir in the HepAD38 assay was 0.5 nM, as previously reported in the literature.

[2] = In vitro cytotoxicity, MTT cell viability assay in HepG2 cells; format: cell-based; details: human, Cytotoxicity CC50
Description: To evaluate antiviral selectivity, the cytotoxic activity of each compound was determined using a standard cell viability assay performed on the parental HepG2 cell line. Cell viability was determined by measuring the conversion of 3-(4,5-dimethylthiazol-2-yl)-2,5-diphenyltetrazolium bromide (MTT) to the insoluble formazan salt crystal that occurs in live cells. Briefly, HepG2 cells were seeded in 96-well plates at a density of 20,000 cells per well in EMEM+10% FBS (complete growth medium) and allowed to adhere overnight in a 37° C., 5% CO2 humidified incubator. The next day, test agents were prepared by performing 8 half-log10 serial dilutions in 100% DMSO at 200× the final desired concentration in the assay. Compounds were tested over a range of concentrations from 30 μM to 1.0 nM in the assay. HepG2 cells were incubated in the presence of various concentrations of CAMs for 7 days in a 37° C., 5% CO2 humidified incubator. At the completion of the 7-day incubation period, MTT reagent was added to each well and the mixture was incubated for an additional 3-4 hours. At the completion of the incubation period, all wells were aspirated to remove the culture medium. The formazan crystals were solubilized from the cell monolayers with 100% DMSO. Plates were briefly mixed on an orbital shaker and absorbance was measured at 492 nm using a Perkin-Elmer EnVision multi-label plate reader. All absorbance values were converted to a percentage of the signal obtained from the vehicle treated controls. Absorbance values at 492 nm are directly proportional to the number of viable cells present in the sample. A CC50 value (cytotoxic concentration that results in loss of 50% cell viability) was calculated from the dose-response curve by 4-parameter, non-linear regression analysis using the GraphPad Prism software. The positive control compound, staurosporine, reduced the viability of HepG2 cells in a dose-dependent manner (CC50=100 nM).

For `O=C(Nc1ccc(F)cn1)c1ccc(Cl)c(C(F)(F)C(=O)N2CCC(O)CC2)c1` [Example 38, 4-chloro-3-(1,1-difluoro-2-(4-hydroxypiperidin-1-yl)-2-oxoethyl)-N-(5-fluoropyridin-2-yl)benzamide], the pEC50 [1] was under 4.52 and the CC50 at 7 days [2] was over 30 µM.

`O=C(Nc1ccc(Cl)cc1)c1ccc(Cl)c(C(F)(F)C(=O)N2CCC(O)CC2)c1` [Example 39, 4-chloro-N-(4-chlorophenyl)-3-(1,1-difluoro-2-(4-hydroxypiperidin-1-yl)-2-oxoethyl)benzamide] showed a pEC50 [1] of 4.52 to 5.30 and a CC50 at 7 days [2] of 5 to 30 µM.

Work on `CN(C(=O)c1ccc(Cl)c(C(F)(F)C(=O)N2CCC(O)CC2)c1)c1ccc(Cl)cc1` [Example 40, 4-chloro-N-(4-chlorophenyl)-3-(1,1-difluoro-2-(4-hydroxypiperidin-1-yl)-2-oxoethyl)-N-methylbenzamide] yielded a pEC50 [1] of under 4.52 and a CC50 at 7 days [2] of over 30 µM.

With `O=C(Nc1ccc(F)cc1Cl)c1ccc(Cl)c(C(F)(F)C(=O)N2CCC(O)CC2)c1` [Example 41, 4-chloro-N-(2-chloro-4-fluorophenyl)-3-(1,1-difluoro-2-(4-hydroxypiperidin-1-yl)-2-oxoethyl)benzamide] the pEC50 [1] was 4.52 to 5.30 and the CC50 at 7 days [2] was over 30 µM.

`O=C(Nc1ccc(F)c(F)c1)c1ccc(Cl)c(C(F)(F)C(=O)N2CCC(O)CC2)c1` [Example 42, 4-chloro-3-(1,1-difluoro-2-(4-hydroxypiperidin-1-yl)-2-oxoethyl)-N-(3,4-difluorophenyl)benzamide] showed a pEC50 [1] of over 5.30 and a CC50 at 7 days [2] of 5 to 30 µM.

For `O=C(Nc1ccc(F)c(Br)c1)c1ccc(Cl)c(C(F)(F)C(=O)N2CCC(O)CC2)c1` [Example 43, N-(3-bromo-4-fluorophenyl)-4-chloro-3-(1,1-difluoro-2-(4-hydroxypiperidin-1-yl)-2-oxoethyl)benzamide], the pEC50 [1] was over 5.30 and the CC50 at 7 days [2] was 5 to 30 µM.

`Cc1cc(NC(=O)c2cnc(C(F)(F)C(=O)N3CCC(O)CC3)s2)ccc1F` [Example 44, 2-(1,1-difluoro-2-(4-hydroxypiperidin-1-yl)-2-oxoethyl)-N-(4-fluoro-3-methylphenyl)thiazole-5-carboxamide] showed a pEC50 [1] of under 4.52 and a CC50 at 7 days [2] of over 30 µM.

`CC(C)(CCO)NC(=O)C(F)(F)c1cc(C(=O)Nc2ccc(F)c(F)c2)ccc1F` [Example 45, 3-(1,1-difluoro-2-((4-hydroxy-2-methylbutan-2-yl)amino)-2-oxoethyl)-N-(3,4-difluorophenyl)-4-fluorobenzamide] showed a pEC50 [1] of over 5.30 and a CC50 at 7 days [2] of 5 to 30 µM.

In the case of `CCN(CCCO)C(=O)C(F)(F)c1cc(C(=O)Nc2ccc(F)c(F)c2)ccc1F` [Example 46, N-(3,4-difluorophenyl)-3-(2-(ethyl(3-hydroxypropyl)amino)-1,1-difluoro-2-oxoethyl)-4-fluorobenzamide], the pEC50 [1] was 4.52 to 5.30 and the CC50 at 7 days [2] was over 30 µM.

In the case of `CN(CCCO)C(=O)C(F)(F)c1cc(C(=O)Nc2ccc(F)c(F)c2)ccc1F` [Example 47, 3-(1,1-difluoro-2-((3-hydroxypropyl)(methyl)amino)-2-oxoethyl)-N-(3,4-difluorophenyl)-4-fluorobenzamide], the pEC50 [1] was 4.52 to 5.30 and the CC50 at 7 days [2] was over 30 µM.

Molecule `O=C(Nc1ccc(F)c(F)c1)c1ccc(F)c(C(F)(F)C(=O)N2CCC(CO)CC2)c1` [Example 48, 3-(1,1-difluoro-2-(4-(hydroxymethyl)piperidin-1-yl)-2-oxoethyl)-N-(3,4-difluorophenyl)-4-fluorobenzamide] has a pEC50 [1] of over 5.30 and a CC50 at 7 days [2] of 5 to 30 µM.

Work on `O=C(Nc1ccc(F)c(F)c1)c1ccc(F)c(C(F)(F)C(=O)N2CCCC(CO)C2)c1` (stereo not drawn) [Example 49, 3-(1,1-difluoro-2-(3-(hydroxymethyl)piperidin-1-yl)-2-oxoethyl)-N-(3,4-difluorophenyl)-4-fluorobenzamide] yielded a pEC50 [1] of over 5.30 and a CC50 at 7 days [2] of over 30 µM.

With `O=C(Nc1ccc(F)c(F)c1)c1ccc(F)c(C(F)(F)C(=O)Nc2ccncc2)c1` [Example 50, 3-(1,1-difluoro-2-oxo-2-(pyridin-4-ylamino)ethyl)-N-(3,4-difluorophenyl)-4-fluorobenzamide] the pEC50 [1] was 4.52 to 5.30 and the CC50 at 7 days [2] was 5 to 30 µM.

For `O=C(Nc1ccc(F)c(F)c1)c1ccc(F)c(C(F)(F)C(=O)NCc2ccncc2)c1` [Example 51, 3-(1,1-difluoro-2-oxo-2-((pyridin-4-ylmethyl)amino)ethyl)-N-(3,4-difluorophenyl)-4-fluorobenzamide], the pEC50 [1] was over 5.30 and the CC50 at 7 days [2] was over 30 µM.

`CCCN(CCO)C(=O)C(F)(F)c1cc(C(=O)Nc2ccc(F)c(F)c2)ccc1F` [Example 52, 3-(1,1-difluoro-2-((2-hydroxyethyl)(propyl)amino)-2-oxoethyl)-N-(3,4-difluorophenyl)-4-fluorobenzamide] gave a pEC50 [1] of 4.52 to 5.30 and a CC50 at 7 days [2] of over 30 µM.

Work on `O=C(Nc1ccc(F)c(F)c1)c1ccc(F)c(C(F)(F)C(=O)NC[C@@H](O)CO)c1` [Example 53, (R)—N-(3,4-difluorophenyl)-3-(2-((2,3-dihydroxypropyl)amino)-1,1-difluoro-2-oxoethyl)-4-fluorobenzamide] yielded a pEC50 [1] of over 5.30 and a CC50 at 7 days [2] of over 30 µM.

For `O=C(Nc1ccc(F)c(F)c1)c1ccc(F)c(C(F)(F)C(=O)NC[C@H](O)CO)c1` [Example 54, (S)—N-(3,4-difluorophenyl)-3-(2-((2,3-dihydroxypropyl)amino)-1,1-difluoro-2-oxoethyl)-4-fluorobenzamide], the pEC50 [1] was over 5.30 and the CC50 at 7 days [2] was over 30 µM.

With `CCN(CCO)C(=O)C(F)(F)c1cc(C(=O)Nc2ccc(F)c(F)c2)ccc1F` [Example 55, N-(3,4-difluorophenyl)-3-(2-(ethyl(2-hydroxyethyl)amino)-1,1-difluoro-2-oxoethyl)-4-fluorobenzamide] the pEC50 [1] was 4.52 to 5.30 and the CC50 at 7 days [2] was over 30 µM.

In the case of `Cc1cc(NC(=O)c2ccc(Cl)c(C(F)(F)C(=O)N3CC[C@@H](O)[C@@H](O)C3)c2)ccc1F` [Example 57, 4-chloro-3-(2-((3S,4R)-3,4-dihydroxypiperidin-1-yl)-1,1-difluoro-2-oxoethyl)-N-(4-fluoro-3-methylphenyl)benzamide], the pEC50 [1] was over 5.30 and the CC50 at 7 days [2] was over 30 µM.

For `Cc1cc(NC(=O)c2ccc(Cl)c(C(F)(F)C(=O)N3CC[C@H](O)[C@H](O)C3)c2)ccc1F` [Example 58, 4-chloro-3-(2-((3R,4S)-3,4-dihydroxypiperidin-1-yl)-1,1-difluoro-2-oxoethyl)-N-(4-fluoro-3-methylphenyl)benzamide], the pEC50 [1] was over 5.30 and the CC50 at 7 days [2] was over 30 µM.

In the case of `Cc1cc(NC(=O)c2csc(C(F)(F)C(=O)N3CCCC3)c2)ccc1F` [Example 59, 5-(1,1-difluoro-2-oxo-2-(pyrrolidin-1-yl)ethyl)-N-(4-fluoro-3-methylphenyl)thiophene-3-carboxamide], the pEC50 [1] was over 5.30 and the CC50 at 7 days [2] was over 30 µM.

Reference: US11247965B2 (VenatoRx Pharmaceuticals, Inc., priority 2017, dated 2022)
